Measurements as given in patent publication US7888289B2, “Heterocyclylethylbenzamide derivatives” (Bayer Cropscience AG, priority 2005, dated 2011).

The compounds below were run on Alternaria brassicae (assay: In vivo test on Alternaria brassicae (radish plants, preventive spray)). Conditions: dose of 110 ppm, radish plants (Pernot variety), contaminated 24 hours after treatment, grading 6 to 7 days after contamination vs control plants, read-out: protection (good (at least 50%) to total).
Procedure: The active ingredient tested is prepared by potter homogenisation in a concentrated suspension type formulation at 100 g/l. This suspension is then diluted with water to obtain the desired active material concentration.
Radish plants (Pernot variety) in starter cups, sown on a 50/50 peat soil-pozzolana substrate and grown at 18-20° C., are treated at the cotyledon stage by spraying with the aqueous suspension described above.
Plants, used as controls, are treated with an aqueous solution not containing the active material.
After 24 hours, the plants are contaminated by spraying them with an aqueous suspension of Alternaria brassicae spores (40,000 spores per cm^3). The spores are collected from a 12-13-day-old culture.
The contaminated radish plants are incubated for 6-7 days at about 18° C., under a humid atmosphere.
Grading is carried out 6 to 7 days after the contamination, in comparison with the control plants.

Compound | pest or weed control at 110 ppm [%]
Cc1ccsc1CCNC(=O)c1ccccc1C(F)F [Compound A-1] | ≥ 50
Cc1nc(CCNC(=O)c2ccccc2C(F)(F)F)sc1C [Compound B-2] | ≥ 50
COc1cc(C(F)(F)F)nn1CCNC(=O)c1ccccc1Br [Compound E-1] | ≥ 50

Same assay, conditions: dose of 330 ppm, radish plants (Pernot variety), contaminated 24 hours after treatment, grading 6 to 7 days after contamination vs control plants, read-out: protection (good (at least 50%) to total)

Compound | pest or weed control at 330 ppm [%]
O=C(NCCc1sccc1Cl)c1ccccc1C(F)(F)F [Compound A-5] | ≥ 50
O=C(NCCc1sccc1Cl)c1ccccc1Br [Compound A-7] | ≥ 50
Cc1csc(CCNC(=O)c2ccccc2C(F)(F)F)n1 [Compound B-1] | ≥ 50
Cc1nc(C)c(CCNC(=O)c2ccccc2Br)s1 [Compound C-2] | ≥ 50
Cn1cc(CCNC(=O)c2ccccc2C(F)(F)F)c(C(F)(F)F)n1 [Compound D-1] | ≥ 50
Cn1cc(CCNC(=O)c2ccccc2Cl)c(C(F)(F)F)n1 [Compound D-4] | ≥ 50
Cc1ccccc1C(=O)NCCc1cn(C)nc1C(F)(F)F [Compound D-5] | ≥ 50
